23 molecules from US9242984B2, “Pyrazolyl derivatives as Syk inhibitors” (Merck Sharp & Dohme Corp., priority 2012, dated 2016) can be followed below.

The structures appear in SMILES notation. Like-named read-outs stand apart in the source and are kept apart here. Some results are limits rather than exact numbers.

The target of this test is T1, recombinant human Syk (GST-hSyk fusion protein) (Homo sapiens, UniProt P43405).
T1 construct: purchased Carna Biosciences 08-176
Kind of test: Homogeneous Time-Resolved Fluorescence (HTRF) assay for the recombinant human Syk enzyme. The following applies: 10-dose titration, 25 μM ATP. The class given is biochemical. The procedure, abridged:
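GST-hSyk (5 pM) preincubated 10 min with compound (0.1% DMSO) in 15 mM Tris-HCl pH 7.5, 2 mM DTT; reaction started with 250 nM biotinylated peptide, 5 mM Mg, 25 μM ATP, 45 min, room temperature. EDTA quench, Eu-anti-phosphotyrosine/SA-APC HTRF read after 30 min; IC50 from 10-dose titration (10 μM–0.508 nM), four-parameter fit.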
For orientation: TR-FRET usually uses a lanthanide donor and a delayed reading to cut background.

Setting [1] is: IC50 class, read-out: rhSYK Activity.

For the molecule `CCC(C)(O)Cn1cc(-c2cc(C)cc(Nc3nccc(C(F)F)n3)c2)cn1` (stereo not drawn) [Example 3.114, 1-[4-(3-{[4-(difluoromethyl)pyrimidin-2-yl]amino}-5-methylphenyl)-1H-pyrazol-1-yl]-2-methylbutan-2-ol], the IC50 under setting [1] is no more than 100 nM.
On the same count and under the same terms, with `Cc1cc(Nc2ncccn2)cc(-c2cnn(CC3CNC(=O)O3)c2)c1` (stereo not drawn) [Example 3.115, 5-({4-[3-methyl-5-(pyrimidin-2-ylamino)phenyl]-1H-pyrazol-1-yl}methyl)-1,3-oxazolidin-2-one] the figure was no more than 100 nM.
Still for that read-out and setting: then `Cc1cc(Nc2ncccn2)cc(-c2cnn(CC3CNC(=O)O3)c2)c1` (stereo not drawn) [Example 3.116, 5-({4-[3-methyl-5-(pyrimidin-2-ylamino)phenyl]-1H-pyrazol-1-yl}methyl)-1,3-oxazolidin-2-one], with no more than 100 nM; and `Cc1cc(Nc2nccc(C(F)(F)F)n2)cc(-c2cnn(CC3(C)CNC(=O)O3)c2)c1` (stereo not drawn) [Example 3.117, 5-methyl-5-{[4-(3-methyl-5-{[4-(trifluoromethyl)pyrimidin-2-yl]amino}phenyl)-1H-pyrazol-1-yl]methyl}-1,3-oxazolidin-2-one], with no more than 100 nM; and `Cc1cc(Nc2nccc(C(F)(F)F)n2)cc(-c2cnn(CC3(C)CNC(=O)O3)c2)c1` (stereo not drawn) [Example 3.118, 5-methyl-5-{[4-(3-methyl-5-{[4-(trifluoromethyl)pyrimidin-2-yl]amino}phenyl)-1H-pyrazol-1-yl]methyl}-1,3-oxazolidin-2-one], with no more than 100 nM.
With `Cc1cc(Nc2nccc(C(F)(F)F)n2)cc(-c2cnn(CC3OC(=O)NC3C)c2)c1` (stereo not drawn) [Example 3.119, 4-methyl-5-{[4-(3-methyl-5-{[4-(trifluoromethyl)pyrimidin-2-yl]amino}phenyl)-1H-pyrazol-1-yl]methyl}-1,3-oxazolidin-2-one], under setting [1], the IC50 was no more than 100 nM.
Regarding `Cc1cc(Nc2nccc(C(F)(F)F)n2)cc(-c2cnn(CC3OC(=O)NC3C)c2)c1` (stereo not drawn) [Example 3.120, 4-methyl-5-{[4-(3-methyl-5-{[4-(trifluoromethyl)pyrimidin-2-yl]amino}phenyl)-1H-pyrazol-1-yl]methyl}-1,3-oxazolidin-2-one], the IC50 under setting [1] is no more than 100 nM.
On to `Cc1cc(Nc2nccc(C)n2)cc(-c2cnn(CC3(C)CNC(=O)O3)c2)c1` (stereo not drawn) [Example 3.121, 5-methyl-5-[(4-{3-methyl-5-[(4-methylpyrimidin-2-yl)amino]phenyl}-1H-pyrazol-1-yl)methyl]-1,3-oxazolidin-2-one], for which the IC50 under setting [1] is no more than 100 nM.
As for `Cc1cc(Nc2nccc(C)n2)cc(-c2cnn(CC3(C)CNC(=O)O3)c2)c1` (stereo not drawn) [Example 3.122, 5-methyl-5-[(4-{3-methyl-5-[(4-methylpyrimidin-2-yl)amino]phenyl}-1H-pyrazol-1-yl)methyl]-1,3-oxazolidin-2-one], under setting [1], the IC50 was no more than 100 nM.
Same read-out and setting: then `Cc1cc(Nc2nccc(C(F)F)n2)cc(-c2cnn(CC3(C)CNC(=O)O3)c2)c1` (stereo not drawn) [Example 3.123, 5-{[4-(3-{[4-(difluoromethyl)pyrimidin-2-yl]amino}-5-methylphenyl)-1H-pyrazol-1-yl]methyl}-5-methyl-1,3-oxazolidin-2-one], with no more than 100 nM; and `Cc1cc(Nc2nccc(C(F)F)n2)cc(-c2cnn(CC3(C)CNC(=O)O3)c2)c1` (stereo not drawn) [Example 3.124, 5-{[4-(3-{[4-(difluoromethyl)pyrimidin-2-yl]amino}-5-methylphenyl)-1H-pyrazol-1-yl]methyl}-5-methyl-1,3-oxazolidin-2-one], with no more than 100 nM; and `Cc1cc(Nc2nccc(C(C)(F)F)n2)cc(-c2cnn(CC3CNC(=O)O3)c2)c1` (stereo not drawn) [Example 3.125, 5-{[4-(3-{[4-(1,1-difluoroethyl)pyrimidin-2-yl]amino}-5-methylphenyl)-1H-pyrazol-1-yl]methyl}-1,3-oxazolidin-2-one], with no more than 100 nM.
As to `Cc1cc(Nc2nccc(C(C)(F)F)n2)cc(-c2cnn(CC3CNC(=O)O3)c2)c1` (stereo not drawn) [Example 3.126, 5-{[4-(3-{[4-(1,1-difluoroethyl)pyrimidin-2-yl]amino}-5-methylphenyl)-1H-pyrazol-1-yl]methyl}-1,3-oxazolidin-2-one], the IC50 under setting [1] is no more than 100 nM.
In the case of `Cc1cc(Nc2nccc(C(F)(F)F)n2)cc(-c2cnn(CC3NC(=O)OC3C)c2)c1` (stereo not drawn) [Example 3.127, 5-methyl-4-{[4-(3-methyl-5-{[4-(trifluoromethyl)pyrimidin-2-yl]amino}phenyl)-1H-pyrazol-1-yl]methyl}-1,3-oxazolidin-2-one], under setting [1], the IC50 is no more than 100 nM.
The same measure, in the same setting: then `Cc1cc(Nc2nccc(C(F)(F)F)n2)cc(-c2cnn(CC3NC(=O)OC3C)c2)c1` (stereo not drawn) [Example 3.128, 5-methyl-4-{[4-(3-methyl-5-{[4-(trifluoromethyl)pyrimidin-2-yl]amino}phenyl)-1H-pyrazol-1-yl]methyl}-1,3-oxazolidin-2-one], with no more than 100 nM; and `Cc1cc(Nc2nccc(C(F)(F)F)n2)cc(-c2cnn(CC3NC(=O)OC3C)c2)c1` (stereo not drawn) [Example 3.129, 5-methyl-4-{[4-(3-methyl-5-{[4-(trifluoromethyl)pyrimidin-2-yl]amino}phenyl)-1H-pyrazol-1-yl]methyl}-1,3-oxazolidin-2-one], with no more than 100 nM.
On to `COC(=O)[C@@H](N)Cn1cc(-c2cc(C)cc(Nc3nccc(C(F)(F)F)n3)c2)cn1` [Example 4.1, methyl 3-[4-(3-methyl-5-{[4-(trifluoromethyl)pyrimidin-2-yl]amino}phenyl)-1H-pyrazol-1-yl]-L-alaninate], for which the IC50 is, setting by setting: (read-out: rhSYK IC50) 27.4 nM; under setting [1], no more than 100 nM.
Take `COC(=O)[C@@H](O)Cn1cc(-c2cc(C)cc(Nc3nccc(C(F)(F)F)n3)c2)cn1` [Example 5.2, methyl (2S)-2-hydroxy-3-[4-(3-methyl-5-{[4-(trifluoromethyl)-pyrimidin-2-yl]amino}phenyl)-1H-pyrazol-1-yl]propanoate]: under setting [1], the IC50 was no more than 100 nM.
Consider `COC(=O)[C@H](O)Cn1cc(-c2cc(C)cc(Nc3nccc(C(F)(F)F)n3)c2)cn1` [Example 5.3, methyl (2R)-2-hydroxy-3-[4-(3-methyl-5-{[4-(trifluoro-methyl)pyrimidin-2-yl]amino}phenyl)-1H-pyrazol-1-yl]propanoate], for which, under setting [1], the IC50 was no more than 100 nM.
On to `Cc1cc(Nc2nccc(C(F)(F)F)n2)cc(-c2cnn(C[C@]3(O)CC[C@@H](C(=O)O)CC3)c2)c1` [Example 5.5, cis-4-hydroxy-4-{[4-(3-methyl-5-{[4-(trifluoro-methyl)pyrimidin-2-yl]amino}-phenyl)-1H-pyrazol-1-yl]methyl}-cyclo-hexanecarboxylic acid], for which, under setting [1], the IC50 was no more than 100 nM.
On to `Cc1cc(Nc2nccc(C(F)(F)F)n2)cc(-c2cnn(CC(O)COC(C)C)c2)c1` (stereo not drawn) [Example 5.7, 1-(1-methylethoxy)-3-[4-(3-methyl-5-{[4-(trifluoro-methyl)pyrimidin-2-yl]amino}-phenyl)-1H-pyrazol-1-yl]propan-2-ol], for which, under setting [1], the IC50 is no more than 100 nM.
For the molecule `Cc1cc(Nc2nccc(C(F)(F)F)n2)cc(-c2cnn(CC(O)COc3ccccc3)c2)c1` (stereo not drawn) [Example 5.8, 1-[4-(3-methyl-5-{[4-(trifluoro-methyl)pyrimidin-2-yl]amino}-phenyl)-1H-pyrazol-1-yl]-3-phenoxypropan-2-ol], the IC50 under setting [1] lay in the range of 100 to 1000 nM.
In the case of `COc1ccc(OCC(O)Cn2cc(-c3cc(C)cc(Nc4nccc(C(F)(F)F)n4)c3)cn2)cc1` (stereo not drawn) [Example 5.11, 1-(4-methoxy-phenoxy)-3-[4-(3-methyl-5-{[4-(trifluoromethyl)-pyrimidin-2-yl]amino}phenyl)-1H-pyrazol-1-yl]propan-2-ol], the IC50 under setting [1] is 100 to 1000 nM.
